Experiments:
[1] = Inhibition of Candida glabrata beta-carbonic anhydrase preincubated for 15 mins by stopped-flow CO2 hydration assay; design: species or system Nakaseomyces glabratus
[2] = Inhibition of Porphyromonas gingivalis beta-carbonic anhydrase preincubated for 15 mins by stopped-flow CO2 hydration assay
[3] = Inhibition of Cryptococcus neoformans beta-carbonic anhydrase preincubated for 15 mins by stopped-flow CO2 hydration assay
[4] = Inhibition of Plasmodium falciparum eta-carbonic anhydrase preincubated for 15 mins by stopped-flow CO2 hydration assay
[5] = Inhibition of Trypanosoma cruzi alpha-carbonic anhydrase preincubated for 15 mins by stopped-flow CO2 hydration assay
[6] = Inhibition of Leishmania donovani chagasi beta-carbonic anhydrase preincubated for 15 mins by stopped-flow CO2 hydration assay
[7] = Inhibition of Vibrio cholerae alpha-carbonic anhydrase preincubated for 15 mins by stopped-flow CO2 hydration assay
[8] = Inhibition of Porphyromonas gingivalis gamma-carbonic anhydrase preincubated for 15 mins by stopped-flow CO2 hydration assay

Structure (SMILES) | Ki [1] | Ki [2] | Ki [3] | Ki [4] | Ki [5] | Ki [6] | Ki [7] | Ki [8]
NS(=O)(=O)c1ccc(C(=O)NCCNC(=O)CCN(CCC(=O)NCCNC(=O)c2ccc(S(N)(=O)=O)cc2)CCN(CCC(=O)NCCNC(=O)c2ccc(S(N)(=O)=O)cc2)CCC(=O)NCCNC(=O)c2ccc(S(N)(=O)=O)cc2)cc1 | 427 nM | 84.9 nM | 24 nM | 69.7 nM | 17.7 nM | 75.4 nM | 47.2 nM | 405 nM
NS(=O)(=O)c1ccc(C(=O)NCCNC(=O)CCN(CCNC(=O)CCN(CCC(=O)NCCN(CCC(=O)NCCNC(=O)c2ccc(S(N)(=O)=O)cc2)CCC(=O)NCCNC(=O)c2ccc(S(N)(=O)=O)cc2)CCN(CCC(=O)NCCN(CCC(=O)NCCNC(=O)c2ccc(S(N)(=O)=O)cc2)CCC(=O)NCCNC(=O)c2ccc(S(N)(=O)=O)cc2)CCC(=O)NCCN(CCC(=O)NCCNC(=O)c2ccc(S(N)(=O)=O)cc2)CCC(=O)NCCNC(=O)c2ccc(S(N)(=O)=O)cc2)CCC(=O)NCCNC(=O)c2ccc(S(N)(=O)=O)cc2)cc1 | 342 nM | 77 nM | 83.6 nM | 58.6 nM | 95.4 nM | 85.6 nM | 8.1 nM | 563 nM
